US8431704B2, “Quinoline or isoquinoline substituted P2X7 antagonists” (Janssen Pharmaceutica NV, priority 2008, dated 2013)

How the values were obtained:
hP2X7 = biological target: T1, hP2X7 (Homo sapiens, UniProt Q99572); experiment: P2X7 antagonism: ligand-induced Ca2+ flux in 1321N1 astrocytoma cells overexpressing hP2X7; assay type: cell-based; settings: pIC50 = -log(IC50), read-out: hP2RX7pIC50 (mean pIC50 values) (converted)
T1 construct: expressed in transfected cells; host or cells: 1321N1 astrocytoma cells
T1 sequence (Q99572 1-595): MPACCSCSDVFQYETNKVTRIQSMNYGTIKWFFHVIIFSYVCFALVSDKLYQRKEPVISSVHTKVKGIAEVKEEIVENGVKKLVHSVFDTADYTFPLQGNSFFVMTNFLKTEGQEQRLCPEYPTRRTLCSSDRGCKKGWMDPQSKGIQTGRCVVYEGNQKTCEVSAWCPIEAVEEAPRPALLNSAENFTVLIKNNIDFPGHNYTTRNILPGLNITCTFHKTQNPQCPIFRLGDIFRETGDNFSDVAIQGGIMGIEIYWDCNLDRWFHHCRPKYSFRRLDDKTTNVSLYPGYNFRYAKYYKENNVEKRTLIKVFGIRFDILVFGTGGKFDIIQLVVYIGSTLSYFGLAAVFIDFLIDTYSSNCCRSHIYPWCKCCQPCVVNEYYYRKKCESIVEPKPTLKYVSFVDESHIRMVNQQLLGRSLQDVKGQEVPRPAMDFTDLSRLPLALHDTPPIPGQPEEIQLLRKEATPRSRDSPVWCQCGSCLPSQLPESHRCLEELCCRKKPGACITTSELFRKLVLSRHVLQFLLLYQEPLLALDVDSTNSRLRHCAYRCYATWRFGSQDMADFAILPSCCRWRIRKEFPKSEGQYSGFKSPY
How it was run: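 Intracellular Ca2+ tracked with a quenched Ca2+-sensitive fluorescent dye kit (excitation 488 nm, emission 510-560 nm) in 1321N1 cells, before and after agonist addition in presence of antagonist. Effects expressed as % control and IC50.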

P2X7 = biological target: T2, P2X7 (Homo sapiens, UniProt Q99572); experiment: THP-1 YoPro uptake assay (BzATP-stimulated Yo-Pro-1 uptake); assay type: cell-based; settings: Table F-10, THP-1 cells, read-out: mean pIC50 values for P2X7 antagonism (converted)
T2 construct: endogenous in cells; host or cells: THP-1 human monocytic cell line
T2 sequence (Q99572 1-595): T1 sequence (Q99572 1-595)
Procedure: The human monocytic cell line THP-1 was grown as a suspension culture in RPMI medium supplemented with 10% fetal bovine serum, penicillin/streptomycin (50 units/mL), 2 mM L-glutamine, and 20 μM 2-mercaptoethanol. Cells were maintained at a density below 0.5 million per mL. On the day of the assay, cells were washed twice with assay buffer, and then resuspended at 2 million per mL in assay buffer containing 2 μM Yo-Pro-1 (Invitrogen). The assay buffer contained (in mM): 280 sucrose, 5 KCl, 10 glucose, 10 HEPES, 5 N-methyl-D-glucamine. The cells were added at 200 k/well into poly-D-lysine-coated black-walled 96-well plates (Biocoat, Becton-Dickinson). Test compounds were dissolved in DMSO, and then added at the test concentration to each well of the 96-well plate. Concentration dependence of block was determined by exposing each well of cells in duplicate rows of a 96-well plate to a serial dilution of test compound. The concentration series usually started at 10 μM with a three-fold decrement in concentration. The final DMSO concentration seen by the cells was less than 0.5%. Cells were incubated with test compounds for 30 minutes at 37° C. A background reading was taken using a Gemini SpectraMax with 490 nm excitation and 530 nm emission. […] After incubation for 60 minutes at 37° C., an endpoint read was taken in the SpectraMax plate reader. The amount of block of the response was determined by comparing the fluorescence intensity in each well to the average of control wells on each plate. The control wells contained either a known antagonist of P2X7 (positive controls) or a concentration of DMSO equal to that in the test wells. Data were analyzed using a nonlinear regression program (Origin, OriginLab, MA). Results are reported as the −log of the IC50 (pIC50).

Row | SMILES | IC50 (hP2X7) [nM] | IC50 (P2X7) [nM]
1 | O=C(NCC(c1cnc(C(F)(F)F)nc1)N1CCOCC1)c1cccc2nc(NCC3CCCC3)ccc12 (centres unmarked) [Compound 275] | 70.8 | –
2 | CC(C)(C)C1CCN(c2ccc3c(C(=O)NCC(c4cnc(C(F)(F)F)nc4)N4CCOCC4)cccc3n2)CC1 (centres unmarked) [Compound 276] | 813 | –
3 | CC(C)OC1CCN(c2ccc3c(C(=O)NCC(c4cnc(C(F)(F)F)nc4)N4CCOCC4)cccc3n2)CC1 (centres unmarked) [Compound 277] | 46.8 | –
4 | COCC(C)Nc1ccc2c(C(=O)NCC(c3cnc(C(F)(F)F)nc3)N3CCOCC3)cccc2n1 (centres unmarked) [Compound 278] | 87.1 | –
5 | CCN(CC)c1ccc2c(C(=O)NCC(c3cnc(C(F)(F)F)nc3)N3CCOCC3)cccc2n1 (centres unmarked) [Compound 279] | 77.6 | –
6 | CC(C)CN1CCN(c2ccc3c(C(=O)NCC(c4cnc(C(F)(F)F)nc4)N4CCOCC4)cccc3n2)CC1 (centres unmarked) [Compound 280] | 95.5 | –
7 | COCCN1CCN(c2ccc3c(C(=O)NCC(c4cnc(C(F)(F)F)nc4)N4CCOCC4)cccc3n2)CC1 (centres unmarked) [Compound 281] | 75.9 | –
8 | CCc1ncc(C(CNC(=O)c2cccc3nc(N4CCCC4)ccc23)N2CCC(F)(F)CC2)cn1 (centres unmarked) [Compound 282] | 75.9 | –
9 | O=C(NCC(c1cnc(-c2ccccc2)nc1)N1CCC(F)(F)CC1)c1cccc2nc(N3CCCC3)ccc12 (centres unmarked) [Compound 283] | 115 | –
10 | CC(C)Oc1ncc(C(CNC(=O)c2cccc3nc(N4CCCC4)ccc23)N2CCOCC2)cn1 (centres unmarked) [Compound 284] | 67.6 | –
11 | CC(C)N1CCN(c2ccc3c(C(=O)NCC(c4cnc(N5CCCC5)nc4)N4CCOCC4)cccc3n2)CC1 (centres unmarked) [Compound 285] | 158 | –
12 | COc1ncc(C(CNC(=O)c2cccc3nc(N4CCCC4)ccc23)N2CCC(F)(F)CC2)cn1 (centres unmarked) [Compound 286] | 38 | –
13 | O=C(NCC(c1cnc(N2CCNCC2)nc1)N1CCC(F)(F)CC1)c1cccc2nc(N3CCOCC3)ccc12 (centres unmarked) [Compound 287] | 105 | –
14 | CC(C)c1ncc(C(CNC(=O)c2cccc3nc(N4CCN(C(C)C)CC4)ccc23)N2CCOCC2)cn1 (centres unmarked) [Compound 288] | 135 | –
15 | CC(C)Oc1ncc(C(CNC(=O)c2cccc3nc(N4CCN(C(C)C)CC4)ccc23)N2CCOCC2)cn1 (centres unmarked) [Compound 289] | 64.6 | –
16 | CCc1ncc(C(CNC(=O)c2cccc3nc(N4CCCC4)ccc23)N2CCOCC2)cn1 (centres unmarked) [Compound 290] | 135 | –
17 | CC(C)N1CCN(c2ccc3c(C(=O)NCC(c4cnc(OCC5CC5)nc4)N4CCC(F)(F)CC4)cccc3n2)CC1 (centres unmarked) [Compound 291] | 46.8 | –
18 | CCc1ncc(C(CNC(=O)c2cccc3nc(N4CCN(C(C)C)CC4)ccc23)N2CCC(F)(F)CC2)cn1 (centres unmarked) [Compound 292] | 115 | –
19 | O=C(NCC(c1cnc(C2CCCC2)nc1)N1CCC(F)(F)CC1)c1cccc2nc(NCC3CC3)ccc12 (centres unmarked) [Compound 293] | 105 | –
20 | O=C(NCC(c1cnc(OC2CCC2)nc1)N1CCC(F)(F)CC1)c1cccc2nc(NCC3CC3)ccc12 (centres unmarked) [Compound 294] | 67.6 | –
21 | CCc1ncc(C(CNC(=O)c2cccc3nc(N4CCN(C(C)C)CC4)ccc23)N2CCOCC2)cn1 (centres unmarked) [Compound 295] | 209 | –
22 | CCc1ncc(C(CNC(=O)c2cccc3nc(NCC4CC4)ccc23)N2CCOCC2)cn1 (centres unmarked) [Compound 296] | 123 | –
23 | CC(C)N1CCN(c2ccc3c(C(=O)NCC(c4cncnc4)N4CCC(F)(F)CC4)cccc3n2)CC1 (centres unmarked) [Compound 297] | 32.4 | –
24 | CCOc1ncc(C(CNC(=O)c2cccc3nc(N4CCN(C(C)C)CC4)ccc23)N2CCC(F)(F)CC2)cn1 (centres unmarked) [Compound 298] | 45.7 | –
25 | CC(C)c1ncc(C(CNC(=O)c2cccc3nc(N4CCN(C(C)C)CC4)ccc23)N2CCC(F)(F)CC2)cn1 (centres unmarked) [Compound 299] | 110 | –
26 | CC(C)N1CCN(c2ccc3c(C(=O)NCC(c4cnc(OC5CCC5)nc4)N4CCC(F)(F)CC4)cccc3n2)CC1 (centres unmarked) [Compound 300] | 37.2 | –
27 | O=C(NCC(c1cnc(N2CCNCC2)nc1)N1CCC(F)(F)CC1)c1cccc2nc(N3CCCC3)ccc12 (centres unmarked) [Compound 301] | 166 | –

Row | SMILES | IC50 (hP2X7) [nM] | IC50 (P2X7) [nM]
28 | CC(C)N1CCN(c2ccc3c(C(=O)NCC(c4cnc(N)nc4)N4CCC(F)(F)CC4)cccc3n2)CC1 (centres unmarked) [Compound 302] | 81.3 | –
29 | CCOc1ncc(C(CNC(=O)c2cccc3nc(N4CCCC4)ccc23)N2CCOCC2)cn1 (centres unmarked) [Compound 303] | 52.5 | –
30 | O=C(NCC(c1cnc(OCC2CC2)nc1)N1CCC(F)(F)CC1)c1cccc2nc(N3CCCC3)ccc12 (centres unmarked) [Compound 304] | 28.2 | –
31 | CC(C)Oc1ncc(C(CNC(=O)c2cccc3nc(N4CCCC4)ccc23)N2CCC(F)(F)CC2)cn1 (centres unmarked) [Compound 305] | 100 | –
32 | CC(C)Oc1ncc(C(CNC(=O)c2cccc3nc(N4CCN(C(C)C)CC4)ccc23)N2CCC(F)(F)CC2)cn1 (centres unmarked) [Compound 306] | 46.8 | –
33 | O=C(NCC(c1cnc(C2CCCC2)nc1)N1CCC(F)(F)CC1)c1cccc2nc(N3CCCC3)ccc12 (centres unmarked) [Compound 307] | 45.7 | –
34 | CC(C)c1ncc(C(CNC(=O)c2cccc3nc(N4CCCC4)ccc23)N2CCC(F)(F)CC2)cn1 (centres unmarked) [Compound 308] | 49 | –
35 | CC(=O)N1CCN(c2ncc(C(CNC(=O)c3cccc4nc(N5CCN(C(C)C)CC5)ccc34)N3CCC(F)(F)CC3)cn2)CC1 (centres unmarked) [Compound 309] | 74.1 | –
36 | CCOc1ncc(C(CNC(=O)c2cccc3nc(N4CCN(C(C)C)CC4)ccc23)N2CCOCC2)cn1 (centres unmarked) [Compound 310] | 56.2 | –
37 | CCc1ncc(C(CNC(=O)c2cccc3nc(N4CCOCC4)ccc23)N2CCOCC2)cn1 (centres unmarked) [Compound 311] | 112 | –
38 | CC(C)N1CCN(c2ccc3c(C(=O)NCC(c4cnc(N5CCNCC5)nc4)N4CCC(F)(F)CC4)cccc3n2)CC1 (centres unmarked) [Compound 312] | 105 | –
39 | O=C(NCC(c1cnc(OC2CCC2)nc1)N1CCOCC1)c1cccc2nc(N3CCOCC3)ccc12 (centres unmarked) [Compound 313] | 117 | –
40 | O=C(NCC(c1cnc(C2CCCC2)nc1)N1CCOCC1)c1cccc2nc(N3CCOCC3)ccc12 (centres unmarked) [Compound 314] | 151 | –
41 | O=C(NCC(c1cnc(-c2ccccc2)nc1)N1CCOCC1)c1cccc2nc(N3CCOCC3)ccc12 (centres unmarked) [Compound 315] | 42.7 | –
42 | O=C(NCC(c1cnc(C(F)(F)F)nc1)N1CCC(F)(F)CC1)c1c(Cl)ccc2nc(N3CCOCC3)ccc12 (centres unmarked) [Compound 403] | – | 14.8
43 | CN(C)[C@@H]1CCN(c2ccc3c(C(=O)NCC(c4cnc(C(F)(F)F)nc4)N4CCOCC4)c(Cl)ccc3n2)C1 (some centres unmarked) [Compound 406] | – | 8.71
44 | CN(C)[C@H]1CCN(c2ccc3c(C(=O)NCC(c4cnc(C(F)(F)F)nc4)N4CCOCC4)c(Cl)ccc3n2)C1 (some centres unmarked) [Compound 407] | – | 7.41
45 | CC(C)CN1CCN(c2ccc3c(C(=O)NCC(c4cnc(C(F)(F)F)nc4)N4CCOCC4)c(Cl)ccc3n2)CC1 (centres unmarked) [Compound 408] | – | 6.76
46 | O=C(NCC(c1cnc(C(F)(F)F)nc1)N1CCOCC1)c1c(Cl)ccc2nc(N3CCN(C4CC4)CC3)ccc12 (centres unmarked) [Compound 409] | – | 3.39
47 | CC(C)N1CCN(c2ccc3c(C(=O)NCC(c4cnc(C(F)(F)F)nc4)N4CCOCC4)c(Cl)ccc3n2)CC1 (centres unmarked) [Compound 410] | – | 5.01
48 | CCN1CCN(c2ccc3c(C(=O)NCC(c4cnc(C(F)(F)F)nc4)N4CCOCC4)c(Cl)ccc3n2)CC1 (centres unmarked) [Compound 411] | – | 5.62
49 | CN(C)CCNc1ccc2c(C(=O)NCC(c3cnc(C(F)(F)F)nc3)N3CCOCC3)c(Cl)ccc2n1 (centres unmarked) [Compound 412] | – | 5.13
50 | N[C@@H]1CCCN(c2ccc3c(C(=O)NCC(c4cnc(C(F)(F)F)nc4)N4CCOCC4)c(Cl)ccc3n2)C1 (some centres unmarked) [Compound 413] | – | 5.13
51 | O=C(NCC(c1cnc(C(F)(F)F)nc1)N1CCOCC1)c1c(Cl)ccc2nc(N3CCCCC3)ccc12 (centres unmarked) [Compound 414] | – | 4.17
52 | O=C(NCC(c1cnc(C(F)(F)F)nc1)N1CCOCC1)c1c(Cl)ccc2nc(N3CCCC3)ccc12 (centres unmarked) [Compound 415] | – | 2.4
53 | O=C(NCC(c1cnc(C(F)(F)F)nc1)N1CCOCC1)c1c(Cl)ccc2nc(N3CCC3)ccc12 (centres unmarked) [Compound 416] | – | 1.74
